In PubChem BioAssay AID1259411 (Chemical Carcinogenesis Research Information System (CCRIS), 2018):
Active and inactive are the calls of the source. How the calls were made is not given here.

Test system: rodent carcinogenicity bioassays, tumor incidence
Assay: CCRIS carcinogenicity studies
Summary of the method: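 Archive of carcinogenicity, mutagenicity, tumor promotion and tumor inhibition results drawn from journals, NCI reports and other sources, expert-reviewed; covers 1985-2011 and is no longer updated.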

COc1cc2c(c3oc(=O)c4c(c13)CCC4=O)[C@@H]1C=CO[C@@H]1O2
carcinogen call (Species: FISH, Strain/Sex: COHO SALMON, Route: DIET, Dose: 0, 40 PPB IN DIET FOR 4 WK (STUDY DURATION: 12 MO)): inactive; negative | carcinogen call (Species: FISH, Strain/Sex: COHO SALMON, Route: DIET, Dose: 0, 5000 PPB FOR 3 WK (STUDY DURATION: 12 MO)): inactive; negative | carcinogen call (Species: FISH, Strain/Sex: COHO SALMON, Route: IMMERSION, Dose: 0, 0.5 PPM AQUEOUS SOLUTION FOR 30 MIN EXPOSURE OF EMBRYOS 4-5 D BEFORE HATCHING (STUDY DURATION: 12 MO)): inactive; negative | carcinogen call (Species: FISH, Strain/Sex: MT. SHASTA RAINBOW TROUT, Route: IMMERSION, Dose: 0, 0.5 PPM AQUEOUS SOLUTION FOR 15 MIN EXPOSURE OF EMBRYOS 4-5 D BEFORE HATCHING (STUDY DURATION: 12 MO), Tumor Site: Type of Lesion: LIVER: HEPATOCELLULAR CARCINOMA): active; positive | carcinogen call (Species: FISH, Strain/Sex: MT. SHASTA RAINBOW TROUT, Route: ORAL, Dose: 0, 20 PPB IN DIET FOR 4 WK (STUDY DURATION: 12 MO), Tumor Site: Type of Lesion: LIVER: HEPATOCELLULAR CARCINOMA): active; positive | carcinogen call (Species: FISH, Strain/Sex: RAINBOW TROUT, Route: ORAL, Dose: 0, 1.5, 7.5 UG/DIET FOR 5.5 MO (STUDY DURATION: 5.5 MO), Dose: 0, 1.5, 7.5 UG/DIET FOR 5.5 MO (STUDY DURATION: 5.5 MO), Tumor Site: Type of Lesion: LIVER: HEPATOMA): active; positive | carcinogen call (Species: FISH, Strain/Sex: RAINBOW, Route: DIET, Dose: 0, 6 PPB FOR UP TO 1 YR, Tumor Site: Type of Lesion: LIVER: HEPATOCELLULAR CARCINOMA): active; positive | carcinogen call (Species: FISH, Strain/Sex: SHASTA RAINBOW TROUT/MALE, FEMALE, Route: IMMERSION, Dose: 0, 0.01, 0.025, 0.05, 0.1, 0.25, 0.5 PPM SOLUTION IN WATER FOR 1 HR EXPOSURE OF EMBRYOS (STUDY DURATION: 13 MO), Dose: 0, 0.01, 0.025, 0.05, 0.1, 0.25, 0.5 PPM SOLUTION IN WATER FOR 1 HR EXPOSURE OF EMBRYOS (STUDY DURATION: 13 MO), Tumor Site: Type of Lesion: LIVER: TUMOR): active; positive | carcinogen call (Species: FISH, Strain/Sex: SHASTA RAINBOW TROUT/MALE, FEMALE, Route: ORAL, Dose: 0, 4, 8, 16, 32, 64 PPB IN DIET FOR 2 WK FOLLOWED BY CONTROL DIET FOR THE DURATION OF STUDY (STUDY DURATION: 9 MO), Dose: 0, 4, 8, 16, 32, 64 PPB IN DIET FOR 2 WK FOLLOWED BY CONTROL DIET FOR THE DURATION OF STUDY (STUDY DURATION: 9 MO), Tumor Site: Type of Lesion: LIVER: TUMOR): active; positive | carcinogen call (Species: HUMAN, Route: ORAL, Tumor Site: Type of Lesion: LIVER): active; positive | carcinogen call (Species: MONKEY, Strain/Sex: AFRICAN GREEN/MALE,FEMALE, Route: INTRAPERITONEAL, Dose: 99-134 MG TOTAL DOSE, 1/WK FOR AT LEAST 2 YR, Tumor Site: Type of Lesion: LIVER: CARCINOMA, HEMANGIOENDOTHELIAL SARCOMA, GALL BLADDER (BILE DUCT): ADENOCARCINOMA, PANCREAS: HEMANGIOENDOTHELIAL S, Tumor Site: Type of Lesion: LIVER: CARCINOMA, HEMANGIOENDOTHELIAL SARCOMA, GALL BLADDER (BILE DUCT): ADENOCARCINOMA, PANCREAS: HEMANGIOENDOTHELIAL S): active; positive | carcinogen call (Species: MONKEY, Strain/Sex: AFRICAN GREEN/MALE,FEMALE, Route: ORAL, Dose: 99-134 MG TOTAL DOSE, 1/WK FOR AT LEAST 2 YR, Tumor Site: Type of Lesion: LIVER: CARCINOMA, HEMANGIOENDOTHELIAL SARCOMA, GALL BLADDER (BILE DUCT): ADENOCARCINOMA, PANCREAS: HEMANGIOENDOTHELIAL S, Tumor Site: Type of Lesion: LIVER: CARCINOMA, HEMANGIOENDOTHELIAL SARCOMA, GALL BLADDER (BILE DUCT): ADENOCARCINOMA, PANCREAS: HEMANGIOENDOTHELIAL S): active; positive | carcinogen call (Species: MONKEY, Strain/Sex: CYNOMOLGUS/MALE,FEMALE, Route: INTRAPERITONEAL, Dose: 99-134 MG TOTAL DOSE, 1/WK FOR AT LEAST 2 YR, Tumor Site: Type of Lesion: LIVER: CARCINOMA, HEMANGIOENDOTHELIAL SARCOMA, GALL BLADDER (BILE DUCT): ADENOCARCINOMA, PANCREAS: HEMANGIOENDOTHELIAL S, Tumor Site: Type of Lesion: LIVER: CARCINOMA, HEMANGIOENDOTHELIAL SARCOMA, GALL BLADDER (BILE DUCT): ADENOCARCINOMA, PANCREAS: HEMANGIOENDOTHELIAL S): active; positive | carcinogen call (Species: MONKEY, Strain/Sex: CYNOMOLGUS/MALE,FEMALE, Route: ORAL, Dose: 99-134 MG TOTAL DOSE, 1/WK FOR AT LEAST 2 YR, Tumor Site: Type of Lesion: LIVER: CARCINOMA, HEMANGIOENDOTHELIAL SARCOMA, GALL BLADDER (BILE DUCT): ADENOCARCINOMA, PANCREAS: HEMANGIOENDOTHELIAL S, Tumor Site: Type of Lesion: LIVER: CARCINOMA, HEMANGIOENDOTHELIAL SARCOMA, GALL BLADDER (BILE DUCT): ADENOCARCINOMA, PANCREAS: HEMANGIOENDOTHELIAL S): active; positive | carcinogen call (Species: MONKEY, Strain/Sex: RHESUS/MALE,FEMALE, Route: INTRAPERITONEAL, Dose: 99-134 MG TOTAL DOSE, 1/WK FOR AT LEAST 2 YR, Tumor Site: Type of Lesion: LIVER: CARCINOMA, HEMANGIOENDOTHELIAL SARCOMA, GALL BLADDER (BILE DUCT): ADENOCARCINOMA, PANCREAS: HEMANGIOENDOTHELIAL S, Tumor Site: Type of Lesion: LIVER: CARCINOMA, HEMANGIOENDOTHELIAL SARCOMA, GALL BLADDER (BILE DUCT): ADENOCARCINOMA, PANCREAS: HEMANGIOENDOTHELIAL S): active; positive | carcinogen call (Species: MONKEY, Strain/Sex: RHESUS/MALE,FEMALE, Route: ORAL, Dose: 99-134 MG TOTAL DOSE, 1/WK FOR AT LEAST 2 YR, Tumor Site: Type of Lesion: LIVER: CARCINOMA, HEMANGIOENDOTHELIAL SARCOMA, GALL BLADDER (BILE DUCT): ADENOCARCINOMA, PANCREAS: HEMANGIOENDOTHELIAL S, Tumor Site: Type of Lesion: LIVER: CARCINOMA, HEMANGIOENDOTHELIAL SARCOMA, GALL BLADDER (BILE DUCT): ADENOCARCINOMA, PANCREAS: HEMANGIOENDOTHELIAL S): active; positive | carcinogen call (Species: MOUSE, Route: INTRAPERITONEAL, Tumor Site: Type of Lesion: LIVER): active; positive | carcinogen call (Species: MOUSE, Route: INTRAPERITONEAL, Tumor Site: Type of Lesion: LUNG): active; positive | carcinogen call (Species: MOUSE, Strain/Sex: DDK/FEMALE, Route: TRANSPLACENTAL, Dose: 0, 20, 40, 80, 120 MG/KG ADMINISTERED INTRAPERITONEALLY TO MOTHERS ON DAY 14 OF GESTATION AND OFFSPRING OBSERVED FOR 12, Dose: 0, 20, 40, 80, 120 MG/KG ADMINISTERED INTRAPERITONEALLY TO MOTHERS ON DAY 14 OF GESTATION AND OFFSPRING OBSERVED FOR 12): inactive; negative | carcinogen call (Species: MOUSE, Strain/Sex: DDK/FEMALE, Route: TRANSPLACENTAL, Dose: 0, 40 MG/KG ADMINISTERED INTRAPERITONEALLY TO MOTHERS ON DAY 14 OF GESTATION AND OFFSPRING OBSERVED FOR 6 MO AFTER BIRTH): inactive; negative | carcinogen call (Species: MOUSE, Strain/Sex: DDK/MALE, Route: TRANSPLACENTAL, Dose: 0, 20, 40, 80, 120 MG/KG ADMINISTERED INTRAPERITONEALLY TO MOTHERS ON DAY 14 OF GESTATION AND OFFSPRING OBSERVED FOR 12, Dose: 0, 20, 40, 80, 120 MG/KG ADMINISTERED INTRAPERITONEALLY TO MOTHERS ON DAY 14 OF GESTATION AND OFFSPRING OBSERVED FOR 12, Tumor Site: Type of Lesion: LIVER: TUMOR): active; positive | carcinogen call (Species: MOUSE, Strain/Sex: DDK/MALE, Route: TRANSPLACENTAL, Dose: 0, 40 MG/KG ADMINISTERED INTRAPERITONEALLY TO MOTHERS ON DAY 14 OF GESTATION AND OFFSPRING OBSERVED FOR 6 MO AFTER BIRTH, Tumor Site: Type of Lesion: LIVER: TUMOR): active; positive | carcinogen call (Species: RAT, Route: INTRAPERITONEAL, ORAL, Tumor Site: Type of Lesion: LIVER): active; positive | carcinogen call (Species: RAT, Strain/Sex: F344/MALE, Route: ORAL, Dose: 0, 50 PPB IN AGAR BASED SEMISYNTHETIC DIET FOR STUDY DURATION (STUDY DURATION: 17 MO), Tumor Site: Type of Lesion: LIVER: HEPATOCELLULAR CARCINOMA): active; positive | carcinogen call (Species: RAT, Strain/Sex: F344/MALE, Route: ORAL, Dose: 50 PPB IN DIET 2/WK FOR 12 MO, Tumor Site: Type of Lesion: LIVER: HEPATOCELLULAR CARCINOMA): active; positive | carcinogen call (Species: RAT, Strain/Sex: SPRAGUE-DAWLEY, Route: DIET, Dose: 0, 25 UG/D FOR 15 DOSES, Tumor Site: Type of Lesion: LIVER: HEPATOCELLULAR CARCINOMA): active; positive | carcinogen call (Species: TROUT, Strain/Sex: MT. SHASTA RAINBOW, Route: ORAL, Dose: 4 PPB IN DIET FOR 12 MO, Tumor Site: Type of Lesion: LIVER: HEPATOMA): active; positive | carcinogen call (Species: TROUT, Strain/Sex: MT. SHASTA RAINBOW, Route: ORAL, Dose: 20 PPB IN DIET FOR 12 MO, Tumor Site: Type of Lesion: LIVER: HEPATOCELLULAR CARCINOMA): active; positive
